# Data published in patent US8143293B2, “Kinase inhibitors useful for the treatment of myleoprolific diseases and other proliferative diseases” (Deciphera Pharmaceuticals, LLC, priority 2007, dated 2012).
# Tests used:
# [1] = target: T1, BaF3 cells transfected with wild type p210 BCR-Abl (Homo sapiens, UniProt P00519); test: Ba/F3 p210 whole cell proliferation assay; format: cell-based; details: 72 hours, Cell Titer Blue; read-out: Whole Cell Antiproliferation IC50, Ba/F3 p210 whole cell proliferation assay
# T1 construct: fused on or other part: P11274 (Breakpoint cluster region protein)
# [2] = target: T2, T315I Abl kinase (SEQ ID NO:2) (Homo sapiens, UniProt P00519, T315I); test: T315I Abl kinase (SEQ ID NO:2) assay, pyruvate kinase/lactate dehydrogenase coupled; details: 1 h preincubation, ATP 500 μM; read-out: Biochemical IC50, Abl T315I Enzyme Assay
# T2 construct: purchased deCode Genetics
# T2 sequence (P00519 with tags, fused parts or gaps T315I): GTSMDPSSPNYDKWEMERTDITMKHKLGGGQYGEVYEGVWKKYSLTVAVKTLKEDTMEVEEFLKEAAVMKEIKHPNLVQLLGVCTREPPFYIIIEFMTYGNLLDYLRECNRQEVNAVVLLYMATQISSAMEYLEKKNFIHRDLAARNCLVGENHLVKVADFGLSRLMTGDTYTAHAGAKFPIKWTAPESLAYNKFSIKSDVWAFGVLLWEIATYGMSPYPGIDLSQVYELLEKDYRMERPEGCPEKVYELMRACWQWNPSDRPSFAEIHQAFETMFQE
# [3] = target: T3, BaF3 cells transfected with T315I p210 BCR-Abl (Homo sapiens, UniProt P00519, T315I, cells depend on it); test: Ba/F3 p210 T315I whole cell proliferation assay; format: cell-based; details: 72 hours, Cell Titer Blue; read-out: Whole Cell Antiproliferation IC50, Ba/F3 p210 T315I whole cell proliferation assay
# T3 construct: fused on or other part: P11274 (Breakpoint cluster region protein)
# [4] = target: T4, C-Met kinase (SEQ ID NO:10) (Homo sapiens, UniProt P08581); test: C-Met kinase (SEQ ID NO:10) assay, pyruvate kinase/lactate dehydrogenase coupled; details: 0.5 h preincubation, ATP 100 μM; read-out: Biochemical IC50, c-Met Enzyme Assay
# T4 construct: 956-1390, from Invitrogen, catalogue #PV3143; His6 (N-terminal leader MSYYHHHHHH... with TEV and thrombin sites) (N); purchased Invitrogen PV3143
# T4 sequence (P08581 with tags, fused parts or gaps): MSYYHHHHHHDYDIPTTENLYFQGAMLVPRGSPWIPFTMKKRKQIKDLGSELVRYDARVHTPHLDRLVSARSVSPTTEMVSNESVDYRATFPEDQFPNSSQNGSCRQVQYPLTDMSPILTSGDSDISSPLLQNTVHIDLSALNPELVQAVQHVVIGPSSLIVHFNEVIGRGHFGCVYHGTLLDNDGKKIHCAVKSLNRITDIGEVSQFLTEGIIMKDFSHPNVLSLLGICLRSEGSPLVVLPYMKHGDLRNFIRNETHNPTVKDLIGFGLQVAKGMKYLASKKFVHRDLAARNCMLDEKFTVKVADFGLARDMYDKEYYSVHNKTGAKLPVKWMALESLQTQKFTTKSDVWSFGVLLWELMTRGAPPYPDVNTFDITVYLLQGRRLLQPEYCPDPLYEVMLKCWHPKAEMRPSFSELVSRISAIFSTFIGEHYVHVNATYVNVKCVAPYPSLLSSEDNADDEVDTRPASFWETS
# Procedure, shortened: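 Human c-Met residues 956-1390 with polyE4Y substrate, pH 7.5; compounds preincubated 0.5 h at 22°C before 100 μM ATP start. ADP formation followed via pyruvate kinase/lactate dehydrogenase coupling as NADH loss at A340 for 2 h at 30°C; rate over 1.0–2.0 h, IC50 from percent-inhibition curves.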
smiles,measurement,setting,value
"Cn1cc(-c2cc(Oc3ccc(NC(=O)Nc4cccc(C(F)(F)F)c4)c(F)c3)ccn2)cn1 [Example 3, 1-(2-fluoro-4-(2-(1-methyl-1H-pyrazol-4-yl)pyridin-4-yloxy)phenyl)-3-(3-(trifluoromethyl)phenyl)urea]",GI50,[1],< 100 nM
same,IC50,[2],< 100 nM
same,GI50,[3],< 100 nM
same,IC50,[4],< 1000 nM
